In ChEMBL document CHEMBL1136450, “Synthesis and biological activity of 2-carbomethoxy-3-catechol-8-azabicyclo[3.2.1]octanes” (Bioorg Med Chem Lett, 2003):

What was measured:
Format in all cases: cell-based, HEK293
[1] = molecular target: T1, Sodium-dependent serotonin transporter (Homo sapiens, UniProt P31645)
[2] = molecular target: T2, Sodium-dependent noradrenaline transporter (Homo sapiens, UniProt P23975)
[3] = molecular target: T1, Sodium-dependent serotonin transporter; experiment: Inhibition of [3H]5-HT uptake in HEK cells expressing human SERT
[4] = molecular target: T3, Sodium-dependent dopamine transporter (Homo sapiens, UniProt Q01959)
T3 sequence (Q01959 whole entry): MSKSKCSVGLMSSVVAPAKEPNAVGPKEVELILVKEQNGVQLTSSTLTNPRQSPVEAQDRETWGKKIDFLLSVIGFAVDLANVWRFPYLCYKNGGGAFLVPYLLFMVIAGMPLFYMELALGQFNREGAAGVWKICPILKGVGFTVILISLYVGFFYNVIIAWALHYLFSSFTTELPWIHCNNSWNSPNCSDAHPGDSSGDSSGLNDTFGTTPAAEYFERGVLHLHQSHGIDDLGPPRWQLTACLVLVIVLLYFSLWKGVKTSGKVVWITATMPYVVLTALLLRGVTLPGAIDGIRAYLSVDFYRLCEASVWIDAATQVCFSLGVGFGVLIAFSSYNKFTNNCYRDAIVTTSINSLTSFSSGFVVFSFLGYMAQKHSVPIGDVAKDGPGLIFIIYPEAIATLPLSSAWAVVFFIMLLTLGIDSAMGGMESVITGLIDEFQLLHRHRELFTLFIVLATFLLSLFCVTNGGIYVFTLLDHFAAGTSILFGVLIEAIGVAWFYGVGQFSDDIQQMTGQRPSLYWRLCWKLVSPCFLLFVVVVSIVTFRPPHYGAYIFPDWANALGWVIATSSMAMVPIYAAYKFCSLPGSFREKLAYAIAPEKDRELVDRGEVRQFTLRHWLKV

[5] = molecular target: T3, Sodium-dependent dopamine transporter; experiment: Inhibition of [3H]dopamine uptake in HEK cells expressing human DAT
[6] = molecular target: T2, Sodium-dependent noradrenaline transporter; experiment: Inhibition of [3H]norepinephrine uptake in HEK cells expressing human NET

T1 sequence (P31645 whole entry): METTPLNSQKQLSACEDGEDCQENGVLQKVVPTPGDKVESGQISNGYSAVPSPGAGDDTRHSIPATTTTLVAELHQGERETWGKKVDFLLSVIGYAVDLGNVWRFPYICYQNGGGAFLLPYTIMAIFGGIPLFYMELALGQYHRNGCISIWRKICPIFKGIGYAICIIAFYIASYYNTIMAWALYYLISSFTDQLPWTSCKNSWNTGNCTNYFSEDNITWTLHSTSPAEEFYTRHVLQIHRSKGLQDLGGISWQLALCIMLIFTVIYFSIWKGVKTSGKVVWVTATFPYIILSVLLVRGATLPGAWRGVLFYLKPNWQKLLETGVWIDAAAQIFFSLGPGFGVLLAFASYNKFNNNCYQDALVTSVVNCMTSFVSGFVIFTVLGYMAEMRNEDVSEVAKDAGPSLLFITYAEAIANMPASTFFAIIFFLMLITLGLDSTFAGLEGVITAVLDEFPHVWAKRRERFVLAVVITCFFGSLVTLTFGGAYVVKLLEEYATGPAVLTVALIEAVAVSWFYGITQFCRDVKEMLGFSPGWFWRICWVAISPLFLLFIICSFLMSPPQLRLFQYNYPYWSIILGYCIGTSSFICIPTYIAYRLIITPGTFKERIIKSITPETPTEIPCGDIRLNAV
T2 sequence (P23975 whole entry): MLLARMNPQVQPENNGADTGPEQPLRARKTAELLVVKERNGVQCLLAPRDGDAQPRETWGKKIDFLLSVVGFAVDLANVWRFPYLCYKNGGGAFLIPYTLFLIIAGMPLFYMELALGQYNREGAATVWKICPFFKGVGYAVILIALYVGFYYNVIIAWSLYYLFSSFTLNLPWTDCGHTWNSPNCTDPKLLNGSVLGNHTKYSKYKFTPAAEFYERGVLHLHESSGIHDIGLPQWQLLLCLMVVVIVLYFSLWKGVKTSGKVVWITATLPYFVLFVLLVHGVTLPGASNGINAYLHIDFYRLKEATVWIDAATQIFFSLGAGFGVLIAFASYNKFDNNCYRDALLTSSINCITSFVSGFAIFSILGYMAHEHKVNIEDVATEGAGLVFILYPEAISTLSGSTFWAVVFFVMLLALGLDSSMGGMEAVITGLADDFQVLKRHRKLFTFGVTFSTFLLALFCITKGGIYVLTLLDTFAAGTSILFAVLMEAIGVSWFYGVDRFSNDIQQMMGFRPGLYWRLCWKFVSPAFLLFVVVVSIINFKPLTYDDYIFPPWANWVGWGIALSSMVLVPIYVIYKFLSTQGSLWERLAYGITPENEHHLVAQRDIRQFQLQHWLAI

SMILES	Ki [1] [µM]	Ki ([2]; hek293) [µM]	IC50 [3] [µM]	Ki ([4]; hek293) [µM]	IC50 [5] [µM]	IC50 [6] [µM]	Ki [2] [µM]	Ki [4] [µM]
COC(=O)C1C(c2ccc(C(C)=O)c(C(C)=O)c2)CC2CCC1N2C (stereo in doubt; 10)	0.168	> 10	0.33	> 10	–	–	–	–
COC(=O)C1C(c2ccc(O)c(O)c2)CC2CCC1N2C (stereo in doubt; 7)	0.271	–	0.308	–	0.507	0.122	2.96	1.37
COC(=O)C1=C(c2ccc(O)c(O)c2)CC2CCC1N2C (stereo not given)	> 10	–	–	–	–	–	> 10	> 10
COC(=O)C1=C(c2ccc(C(C)=O)c(C(C)=O)c2)CC2CCC1N2C (stereo not given)	> 10	–	–	–	–	–	> 10	> 10
COC(=O)C1C(c2ccc(O)c(O)c2)CC2CCC1N2C (stereo in doubt; 8)	10	–	–	–	0.406	0.173	3.06	0.97
COC(=O)C1C(c2ccc(C(C)=O)c(C(C)=O)c2)CC2CCC1N2C (stereo in doubt; 11)	0.704	–	–	–	–	–	> 10	> 10
COC(=O)C1C(c2ccc(OC)c(OC)c2)CC2CCC1N2C (stereo not given)	0.046	–	0.023	–	1.57	1.45	4.5	1.54
